# From patent US20250057963A1, “DISCOVERY OF PIPERLONGUMINE AS A NOVEL E3 LIGASE LIGAND” (University of Florida Research Foundation, Incorporated, priority 2021, published 2025)
# “Also recorded” adds a separate entry of the source.
# Key:
# [1] = system: PL-binding proteins in MOLT4 cells; test: Competitive ABPP with PL-Alkyne probe and LC-MS/MS in MOLT4 cells; set-up: species or system Human
# Description: Competitive ABPP. MOLT4 cells (2×10^7) were pre-treated with DMSO or 20 µM PL for 4 h and then treated with 1 μM PL-Alkyne probe (Zhang et al., 2018b) for an additional 4 h. The cells were then harvested and lysed in 1× Dulbecco's phosphate-buffered saline (PBS) buffer (Cat. #D1408, Sigma-Aldrich) containing protease and phosphatase inhibitors. CuAAC reaction was performed as previously described (Spradlin et al., 2019) and biotinylated proteins were enriched using Pierce™ streptavidin agarose beads (Cat. #20353, ThermoFisher).
# Sample preparation and LC-MS/MS analysis. Protein samples were reduced, alkylated, and digested on-bead using filter-aided sample preparation (Wisniewski et al., 2009) with sequencing grade modified porcine trypsin (Cat. No. V5111, Promega). […]
# The MS/MS was acquired according to standard conditions established in the lab. […] The scan sequence of the mass spectrometer was based on the original TopTen™ method; the analysis was programmed for a full scan recorded between 375-1575 Da at 60,000 resolution, and a MS/MS scan at resolution 15,000 to generate product ion spectra to determine amino acid sequence in consecutive instrument scans of the fifteen most abundant peaks in the spectrum. […]
# Data processing and analysis. All MS/MS samples were analyzed using Sequest (Thermo Fisher Scientific, San Jose, CA, USA; version IseNode in Proteome Discoverer 2.4.0.305). […]
# [2] = target: CDK9 (Homo sapiens, UniProt P50750); test: CDK9 degradation in MOLT4 cells (immunoblot); format: cell-based; set-up: endogenous in cells; host or cells: MOLT4, 293T, K562, NCI-H1299, LNCaP; conditions: immunoblot
# Chain of CDK9 (P50750 whole entry): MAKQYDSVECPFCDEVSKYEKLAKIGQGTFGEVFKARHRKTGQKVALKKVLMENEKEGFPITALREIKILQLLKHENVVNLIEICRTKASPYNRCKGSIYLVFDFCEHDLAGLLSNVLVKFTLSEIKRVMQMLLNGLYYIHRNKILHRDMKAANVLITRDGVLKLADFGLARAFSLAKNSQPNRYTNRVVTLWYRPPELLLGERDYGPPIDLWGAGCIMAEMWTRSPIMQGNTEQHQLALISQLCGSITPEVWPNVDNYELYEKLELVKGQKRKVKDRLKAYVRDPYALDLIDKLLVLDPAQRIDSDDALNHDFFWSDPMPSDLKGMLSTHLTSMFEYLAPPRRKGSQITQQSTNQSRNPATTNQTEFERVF
# Description: All the cell lines were maintained in a humidified incubator at 37° C. and 5% CO2.
# Data analysis was performed using GraphPad Prism software (version 9) unless indicated otherwise. All graphs presented represent the mean±standard deviation of the mean (SD) unless otherwise stated.
# [3] = system: proteins in senescent WI38 cells; conditions: cited from earlier work
# [4] = target: T1, CDK9: 955: KEAP1 ternary complex (Homo sapiens, UniProt P50750+Q14145); test: NanoBRET ternary complex formation assay in live 293T cells; format: cell-based; conditions: HiBit-CDK9 and Halo-KEAP1 in 293T cells, 6 h
# T1 construct: expressed in transfected cells; host or cells: 293T
# T1 sequence (P50750 whole entry): as above
# T1 sequence (Q14145 whole entry): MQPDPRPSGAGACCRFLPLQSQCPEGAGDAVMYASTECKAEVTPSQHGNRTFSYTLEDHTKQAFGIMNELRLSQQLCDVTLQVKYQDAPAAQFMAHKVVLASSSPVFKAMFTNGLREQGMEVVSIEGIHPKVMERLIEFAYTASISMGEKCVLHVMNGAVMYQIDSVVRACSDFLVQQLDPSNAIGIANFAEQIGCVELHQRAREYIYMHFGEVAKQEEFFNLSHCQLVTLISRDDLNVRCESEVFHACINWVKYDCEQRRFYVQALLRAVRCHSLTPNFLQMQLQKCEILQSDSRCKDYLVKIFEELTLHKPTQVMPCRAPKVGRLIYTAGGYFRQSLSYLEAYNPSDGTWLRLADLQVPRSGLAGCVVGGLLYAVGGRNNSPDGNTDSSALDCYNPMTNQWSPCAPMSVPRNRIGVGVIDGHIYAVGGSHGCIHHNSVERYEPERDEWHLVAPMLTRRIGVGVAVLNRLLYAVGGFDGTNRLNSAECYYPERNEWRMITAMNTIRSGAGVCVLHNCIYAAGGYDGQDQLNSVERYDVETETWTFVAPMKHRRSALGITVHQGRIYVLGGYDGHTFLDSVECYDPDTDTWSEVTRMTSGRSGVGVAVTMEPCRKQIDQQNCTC
# From the text: CMV HiBit (Cat. No. CS1956B03) was purchased from Promega. Plasmid HaloTag-KEAP1 (a gift from Yimon Aye, plasmid #58240) was purchased from Addgene. HiBit-CDK9 were constructed through the Gibson assembly method. The primer pair (5′-[…]atggcaaagcagtacgactcggtggag-3′ and 5′-[…]gaagacgcgctcaaactccgtctggt-3′) and the template HA-CDK9 (a gift from Andrew Rice, plasmid #28102) was used to clone the CDK9 fragment. The primer pair (5′-accagacggagtttgagcgcgtcttc[…]-3′ and 5′-ctccaccgagtcgtactgcttcgccat[…]-3′) and pBit3.1—N(Cat. No. N2361, Promega) were used to clone the vector-containing fragment. The PCR fragments were assembled using NEBuilder® HiFi DNAAssembly Master Mix. DNA sequences in all these plasmids were authenticated by automatic sequencing. […] After treatment, NanoBRET Nano-Glo Substrate (Cat. No. N1662, Promega) was added into the medium, and the contents were mixed by shaking the plate for 30 s before measuring donor and acceptor signals on Biotek plate reader. Dual-filtered luminescence was collected with a 450/50 nm bandpass filter (donor, NanoBiT-CDK9 protein) and a 610-nm longpass filter (acceptor, HaloTag NanoBRET ligand) using an integration time of 0.5 s. mBRET ratios were calculated following the NanoBRET™ Nano-Glo® Detection System (Cat. No. N1662, Promega).
# [5] = system: LNCaP prostate cancer cells and H1299 lung cancer cells; test: Cell killing (MTS) with or without KEAP1 siRNA knockdown; format: cell-based, Human; conditions: KEAP1 siRNA vs control siRNA 48 h; compound 0.1 mM (LNCaP) or 0.3 mM (H1299) for 24 h
# Description: FIGS. 19A to 19B show percentages of cell killing in LNCaP (FIG. 19A) and H1299 (FIG. 19B) cells with or without KEAP1 knockdown. LNCaP and H1299 cells were treated with control siRNA or siRNAs targeting KEAP1 for 48 h and then reseeded and treated with indicated compound (0.1 mM for LNCaP cells and 0.3 mM for H1299 cells) for 24 h. The cell viability was then determined by MTS assay. The data are presented as mean±SD from three replicate cell cultures in a representative experiment. Data are representative of two independent experiments. Statistical significance was calculated with unpaired two-tailed Student's t-tests. **P<0.01; ***P<0.001; NS: not significant.
# Viability (MTS) assays in various cancer cells followed the methods described in our previous report (Khan et al., 2019). The data were expressed as average % cell viability and fitted in non-linear regression curves using GraphPad Prism 9 (GraphPad Software, La Jolla, CA, USA).
Structure (SMILES),number of PL-binding E3 ligases [1],number of PL-binding proteins [1],CDK9 degradation [2],"number of PL-binding proteins ([3]; senescent WI38 fibroblasts, previous study)","number of PL-binding E3 ligases ([3]; senescent cells, previous study (Zhang et al., 2018b))",formation of the CDK9:KEAP1 ternary complex [4],effect of KEAP1 knockdown on cytotoxicity of the compound [5]
"COc1cc(/C=C/C(=O)N2CCC=CC2=O)cc(OC)c1OC [PL, Piperlongumine]",9,about 300,"only 955, degraded CDK9; also recorded: none of these treatments degraded CDK9",172,8,–,–
"COc1cc(CCC(=O)N2CCCCC2=O)cc(OC)c1OCCN1CCN(C(=O)CN2CCC(C(=O)Nc3ncc(SCc4ncc(C(C)(C)C)o4)s3)CC2)CC1 [compound 336, N-(5-(((5-(tert-butyl)oxazol-2-yl)methyl)thio)thiazol-2-yl)-1-(2-(4-(2-(2,6-dimethoxy-4-(3-oxo-3-(2-oxopiperidin-1-yl)propyl)phenoxy)ethyl)piperazin-1-yl)-2-oxoethyl)piperidine-4-carboxamide]",–,–,"could not induce CDK9 degradation; also recorded: but not 336, can induce CDK9 degradation; also recorded: cannot degrade CDK9",–,–,did not; also recorded: negligible,no significant effect
